Results from US20230157996A1, “SMALL-MOLECULE INHIBITOR TARGETING EB VIRUS NUCLEAR ANTIGEN PROTEIN, PREPARATION METHOD AND USE THEREOF” (priority 2020, published 2023).

System: C666-1 cells
Assay: C666-1 cell viability single concentration (50 μM) inhibition rate (Resazurin)
Assay type: cell-based
Conditions: 50 μM compound, 72 hours, C666-1 cells
Experimental: In order to assess the effect of the EBNA1 inhibitor at the cellular level, the cell proliferation inhibition rate was tested, and the inhibition rate of inhibitor at a specific concentration on the proliferation of Epstein-Barr virus positive cell line C666-1 was detected.
In the test, 100 μL C666-1 cells were inoculated in a transparent 96-well plate, and each well contained 5×10^3 cells. After the cells were cultured in an incubator with 5% carbon dioxide at 37° C. for 24 hours, 10 μL compound at a concentration of 500 μmol/L was added into the cells, so that the final concentration of the compound was 50 μmol/L. Two replicate wells were set for each compound, the wells treated with DMSO were set as control wells (Ctrl), and the wells with cell culture medium only were set as blank wells (blank), and they were treated in the incubator with carbon dioxide at 37° C. for 72 hours. The cell viability was assessed using a redox indicator Resazurin. Specifically, 10 μL Resazurin at a concentration of 600 umol/L was added into each well, and incubated at 37° C. for 3 hours, and a Tecan microplate reader was used to detect the fluorescence signal at an excitation wavelength of 560 nm and an emission wavelength of 590 nm. The formula inh %=1−(F−Fblank)/(FCtrl−Fblank)×100% (where, F is the fluorescence intensity of the compound-added wells, FCtrl and Fblank are the readings of the control wells and blank wells, respectively) was used to calculate the inhibition rate of the compound on the proliferation of C666-1 cells, so as to assess the activity of the compound on Epstein-Barr virus positive cells.

With COC(=O)c1cccc(C#CN(Cc2ccc(F)cc2)S(=O)(=O)c2ccc(C)cc2)c1-n1cccc1 [Example 344] the “C666-1 cell viability single concentration (50 μM) inhibition rate, Ratio* (Inh %)” value was “+ (*Inh %: <10% +)”.
For O=C([O-])c1cccc(N2CC(Oc3ccc([N+](=O)[O-])cc3)C2)c1-n1cccc1.[Na+] [Example 116, Sodium 3-(3-(4-nitrophenoxy)azetidin-1-yl)-2-(1H-pyrrol-1-yl)benzoate], the “C666-1 cell viability single concentration (50 μM) inhibition rate, Ratio* (Inh %)” value was “+ (*Inh %: <10% +)”.

Same assay, conditions: Homo sapiens, C6661, 72 h, 50 μM compound, 72 hours, C666-1 cells; read-out: C666-1 cell viability single concentration (50 μM) inhibition rate, Ratio* (Inh %)

O=C(O)c1cccc(N2CC(Oc3ccc(Oc4ccc(F)cc4)cc3)C2)c1-n1cccc1 [Example 203, 3-(3-(4-(4-fluorophenoxy)phenoxy)azetidin-1-yl)-2-(1H-pyrrol-1-yl)benzoic acid] and O=C(O)c1cccc(N2CC(Oc3ccc(Oc4ccc(Cl)cc4)cc3)C2)c1-n1cccc1 [Example 195, 3-(3-(4-(4-chlorophenoxy)phenoxy)azetidin-1-yl)-2-(1H-pyrrol-1-yl)benzoic acid] fall in the same range of inhibition at 50 µM: 10 to 30% for the first, 10 to 30% for the second.

COc1cccc(OC2CN(c3cccc(C(=O)O)c3-n3cccc3)C2)c1 [Compound 80, 3-(3-(3-methoxyphenoxy)azetidin-1-yl)-2-(1H-pyrrol-1-yl)benzoic acid] and CC(=O)c1ccc(OC2CN(c3cccc(C(=O)O)c3-n3cccc3)C2)cc1 [Compound 88, 3-(3-(4-acetylphenoxy)azetidin-1-yl)-2-(1H-pyrrol-1-yl)benzoic acid] cannot be ordered by inhibition at 50 µM: less than 10% for the first, less than 10% for the second.

COC(=O)c1cccc(N2CC(Oc3ccc(CNCc4ccccc4)cc3)C2)c1-n1cccc1 [Example 364] and COC(=O)c1cccc(N2CC(Oc3ccc(Oc4ccccc4)c(Cl)c3)C2)c1-n1cccc1 [Example 198, Methyl 3-(3-(3-chloro-4-phenoxyphenoxy)azetidin-1-yl)-2-(1H-pyrrol-1-yl)benzoate] cannot be ordered by inhibition at 50 µM: less than 10% for the first, less than 10% for the second.

Compared with COC(=O)c1cccc(N2CC(NC(=O)c3ccccc3)C2)c1-n1cccc1 [Example 178, Methyl 3-(3-benzamidoazetidin-1-yl)-2-(1H-pyrrol-1-yl)benzoate], COC(=O)c1cccc(N2CC(S(=O)(=O)c3ccccc3)C2)c1-n1cccc1 [Example 356, Methyl 3-(3-(phenylsulfonyl)azetidin-1-yl)-2-(1H-pyrrol-1-yl)benzoate] is lower in inhibition at 50 µM: 10 to 30% for the first, less than 10% for the second.

COC(=O)c1cccc(N2CC(NC(=O)Nc3ccc(OC(F)(F)F)cc3)C2)c1-n1cccc1 [Example 166, Methyl 2-(1H-pyrrol-1-yl)-3-(3-(3-(4-(trifluoromethoxy)phenyl)ureido)azetidin-1-yl)benzoate] and CCCNC(=S)Nc1ccc(OC2CN(c3cccc(C(=O)OC)c3-n3cccc3)C2)cc1 [Example 117, Methyl 3-(3-(4-(3-propylthioureido)phenoxy)azetidin-1-yl)-2-(1H-pyrrol-1-yl)benzoate] cannot be ordered by inhibition at 50 µM: greater than 50% for the first, greater than 50% for the second.

O=C(O)c1cccc(N2CC(Oc3ccc(CO)cc3)C2)c1-c1ccc(Cl)cc1 [Compound 58, 4′-chloro-6-(3-(4-(hydroxymethyl)phenoxy)azetidin-1-yl)-[1,1′-biphenyl]-2-formic acid] and O=C(O)c1cccc(N2CC(Oc3ccc(CO)cc3)C2)c1-c1ccc2cc[nH]c2c1 [Compound 40, 3-(3-(4-(hydroxymethyl)phenoxy)azetidin-1-yl)-2-(1H-indol-6-yl)benzoic acid] cannot be ordered by inhibition at 50 µM: less than 10% for the first, less than 10% for the second.

First: O=C(O)c1cccc(N2CC(Oc3ccc(Oc4ccccc4)c(F)c3)C2)c1-n1cccc1 [Example 201, 3-(3-(3-fluoro-4-phenoxyphenoxy)azetidin-1-yl)-2-(1H-pyrrol-1-yl)benzoic acid]
Second: CC(=O)c1ccc(Oc2ccc(OC3CN(c4cccc(C(=O)O)c4-n4cccc4)C3)cc2)cc1 [Example 207, 3-(3-(4-(4-acetylphenoxy)phenoxy)azetidin-1-yl)-2-(1H-pyrrol-1-yl)benzoic acid]
The inhibition at 50 µM of the first is higher: 30 to 50% for the first, 10 to 30% for the second.

COC(=O)c1cccc(N2CC3(CN(c4cccc(NS(=O)(=O)C5CC5)c4)C3)C2)c1N [Compound 31, Methyl 2-amino-3-(6-(3-(cyclopropylsulfonamido)phenyl)-2,6-diazaspiro[3.3]heptan-2-yl)benzoate] and COC(=O)c1cccc(N2CC(S(=O)(=O)c3ccc(Cl)cc3)C2)c1-n1cccc1 [Example 354, Methyl 3-(3-((4-chlorophenyl)sulfonyl)azetidin-1-yl)-2-(1H-pyrrol-1-yl)benzoate] fall in the same range of inhibition at 50 µM: 10 to 30% for the first, 10 to 30% for the second.

O=C(O)c1cccc(N2CC(OC(=S)Nc3ccc(Cl)cc3)C2)c1-n1cccc1 [Example 148, 3-(3-(((4-chlorophenyl)thiocarbamoyl)oxy)azetidin-1-yl)-2-(1H-pyrrol-1-yl)benzoic acid] and O=C(O)c1cccc(N2CC(Oc3ccc(COc4ccc(Cl)cc4)cc3)C2)c1-n1cccc1 [Example 241, 3-(3-(4-((4-chlorophenoxy)methyl)phenoxy)azetidin-1-yl)-2-(1H-pyrrol-1-yl)benzoic acid] cannot be ordered by inhibition at 50 µM: less than 10% for the first, less than 10% for the second.

COCCOc1ccc(OC2CN(c3cccc(C(=O)OC)c3-n3cccc3)C2)cc1OCCOC [Example 306, Methyl 3-(3-(3,4-bis(2-methoxyethoxy)phenoxy)azetidin-1-yl)-2-(1H-pyrrol-1-yl)benzoate] and COC(=O)c1cccc(N2CC(Oc3ccc(OC(C)C)cc3)C2)c1-n1cccc1 [Example 109, Methyl 3-(3-(4-isopropoxyphenoxy)azetidin-1-yl)-2-(1H-pyrrol-1-yl)benzoate] cannot be ordered by inhibition at 50 µM: less than 10% for the first, less than 10% for the second.

Compared with COC(=O)c1cccc(N2CC(Oc3cccnc3)C2)c1-n1cccc1 [Example 259, Methyl 3-(3-(pyridin-3-yloxy)azetidin-1-yl)-2-(1H-pyrrol-1-yl)benzoate], COC(=O)c1cccc(N2CC(Oc3ccc(COC4COC4)cc3)C2)c1-n1cccc1 [Example 377, Methyl 3-(3-(4-((oxetanyl-3-oxy)methyl)phenoxy)azetidin-1-yl)-2-(1H-pyrrol-1-yl)benzoate] is higher in inhibition at 50 µM: 10 to 30% for the first, greater than 50% for the second.

COc1ccccc1NC(=O)Nc1ccc(OC2CN(c3cccc(C(=O)O)c3-n3cccc3)C2)cc1 [Example 289, 3-(3-(4-(3-(2-methoxyphenyl)ureido)phenoxy)azetidin-1-yl)2-(1H-pyrrol-1-yl)benzoic acid] and COC(=O)c1cccc(N2CC(Oc3ccc(Oc4cccc(C(C)=O)c4)cc3)C2)c1-n1cccc1 [Example 293, Methyl 3-(3-(4-(3-acetylphenoxy)phenoxy)azetidin-1-yl)-2-(1H-pyrrol-1-yl)benzoate] fall in the same range of inhibition at 50 µM: 10 to 30% for the first, 10 to 30% for the second.

CS(=O)(=O)Nc1nc(-c2ccc(OC3CN(c4cccc(C(=O)O)c4-n4cccc4)C3)cc2)cs1 [Example 262, 3-(3-(4-(2-(methylsulfonamido)thiazol-4-yl)phenoxy)azetidin-1-yl)-2-(1H-pyrrol-1-yl)benzoic acid] and O=C(O)c1cccc(N2CC(Oc3cc(F)nc(F)c3)C2)c1-n1cccc1 [Example 285, 3-(3-((2,6-difluoropyridin-4-yl)oxy)azetidin-1-yl)-2-(1H-pyrrol-1-yl)benzoic acid] cannot be ordered by inhibition at 50 µM: less than 10% for the first, less than 10% for the second.

First: O=C(O)c1cccc(-c2cn(-c3ccc(CO)cc3)nn2)c1-c1ccc2cc[nH]c2c1 [Example 186, 3-(1-(4-(hydroxymethyl)phenyl)-1H-1,2,3-triazol-4-yl)-2-(1H-indol-6-yl)benzoic acid]
Second: COC(=O)c1cccc(N2CC(Oc3ccc(CO)cc3)C2)c1-c1ccc2ccoc2c1 [Example 277]
The inhibition at 50 µM of the first is lower: less than 10% for the first, 10 to 30% for the second.

O=C(O)c1cccc(C23CC(c4ccccc4)(C2)C3)c1-n1cccc1 [Compound 6, 3-(3-phenylbicyclo[1.1.1]pentan-1-yl)-2-(1H-pyrrol-1-yl)benzoic acid] and CCNC(=S)NC1CN(c2cccc(C(=O)O)c2-n2cccc2)C1 [Example 173, 3-(3-(3-ethylthioureido)azetidin-1-yl)-2-(1H-pyrrol-1-yl)benzoic acid] cannot be ordered by inhibition at 50 µM: less than 10% for the first, less than 10% for the second.

COC(=O)c1cccc(N2CC(Oc3ccc(Oc4ccc(Cl)cc4)cc3)C2)c1-n1cccc1 [Example 194, Methyl 3-(3-(4-(4-chlorophenoxy)phenoxy)azetidin-1-yl)-2-(1H-pyrrol-1-yl)benzoate] and O=C(O)c1cccc(N2CC(Oc3ccc(CO)cc3)C2)c1-c1ccco1 [Example 276] cannot be ordered by inhibition at 50 µM: less than 10% for the first, less than 10% for the second.

Same assay, conditions: Homo sapiens, C6661, 72 h, read-out: C666-1 cell viability single concentration (50 μM) inhibition rate, Ratio* (Inh %)

Going from COc1ccc(CN(C#Cc2cccc(C(=O)O)c2-n2cccc2)S(=O)(=O)c2ccc(C)cc2)cc1 [Example 386] to Cc1ccc(S(=O)(=O)N(C#Cc2cccc(C(=O)O)c2-n2cccc2)Cc2ccc(CO)cc2)cc1 [Example 333, Lithium 3-(((N-(4-(hydroxymethyl)benzyl)-4-methylphenyl)sulfonamido)ethynyl)-2-(1H-pyrrol-1-yl)benzoate], the inhibition at 50 µM rises from less than 10% to greater than 50%.

Compound O=C(O)c1cccc(C#CN(Cc2ccccc2)S(=O)(=O)c2csc3ccccc23)c1-n1cccc1 [Example 321, Lithium 3-((N-benzylbenzo[b]thiophen-3-sulfonamido)ethynyl)-2-(1H-pyrrol-1-yl)benzoate] has an inhibition at 50 µM of less than 10%.
